# Assay results reported in ChEMBL document CHEMBL3611987, “Design and synthesis of conformationally constrained hydroxylated 4-phenyl-2-aryl chromenopyridines as novel and selective topoisomerase II-targeted antiproliferative agents” (Bioorg Med Chem, 2015).
# What was measured:
# [1] = target: DNA topoisomerase 2-alpha (Homo sapiens) (UniProt P11388); experiment: Inhibition of human DNA topoisomerase 2alpha assessed as relaxation of supercoiled pBR322 DNA at 100 uM after 30 mins using ethidium bromide staining by agarose gel electrophoresis
# Chain of DNA topoisomerase 2-alpha (Homo sapiens) (P11388 whole entry): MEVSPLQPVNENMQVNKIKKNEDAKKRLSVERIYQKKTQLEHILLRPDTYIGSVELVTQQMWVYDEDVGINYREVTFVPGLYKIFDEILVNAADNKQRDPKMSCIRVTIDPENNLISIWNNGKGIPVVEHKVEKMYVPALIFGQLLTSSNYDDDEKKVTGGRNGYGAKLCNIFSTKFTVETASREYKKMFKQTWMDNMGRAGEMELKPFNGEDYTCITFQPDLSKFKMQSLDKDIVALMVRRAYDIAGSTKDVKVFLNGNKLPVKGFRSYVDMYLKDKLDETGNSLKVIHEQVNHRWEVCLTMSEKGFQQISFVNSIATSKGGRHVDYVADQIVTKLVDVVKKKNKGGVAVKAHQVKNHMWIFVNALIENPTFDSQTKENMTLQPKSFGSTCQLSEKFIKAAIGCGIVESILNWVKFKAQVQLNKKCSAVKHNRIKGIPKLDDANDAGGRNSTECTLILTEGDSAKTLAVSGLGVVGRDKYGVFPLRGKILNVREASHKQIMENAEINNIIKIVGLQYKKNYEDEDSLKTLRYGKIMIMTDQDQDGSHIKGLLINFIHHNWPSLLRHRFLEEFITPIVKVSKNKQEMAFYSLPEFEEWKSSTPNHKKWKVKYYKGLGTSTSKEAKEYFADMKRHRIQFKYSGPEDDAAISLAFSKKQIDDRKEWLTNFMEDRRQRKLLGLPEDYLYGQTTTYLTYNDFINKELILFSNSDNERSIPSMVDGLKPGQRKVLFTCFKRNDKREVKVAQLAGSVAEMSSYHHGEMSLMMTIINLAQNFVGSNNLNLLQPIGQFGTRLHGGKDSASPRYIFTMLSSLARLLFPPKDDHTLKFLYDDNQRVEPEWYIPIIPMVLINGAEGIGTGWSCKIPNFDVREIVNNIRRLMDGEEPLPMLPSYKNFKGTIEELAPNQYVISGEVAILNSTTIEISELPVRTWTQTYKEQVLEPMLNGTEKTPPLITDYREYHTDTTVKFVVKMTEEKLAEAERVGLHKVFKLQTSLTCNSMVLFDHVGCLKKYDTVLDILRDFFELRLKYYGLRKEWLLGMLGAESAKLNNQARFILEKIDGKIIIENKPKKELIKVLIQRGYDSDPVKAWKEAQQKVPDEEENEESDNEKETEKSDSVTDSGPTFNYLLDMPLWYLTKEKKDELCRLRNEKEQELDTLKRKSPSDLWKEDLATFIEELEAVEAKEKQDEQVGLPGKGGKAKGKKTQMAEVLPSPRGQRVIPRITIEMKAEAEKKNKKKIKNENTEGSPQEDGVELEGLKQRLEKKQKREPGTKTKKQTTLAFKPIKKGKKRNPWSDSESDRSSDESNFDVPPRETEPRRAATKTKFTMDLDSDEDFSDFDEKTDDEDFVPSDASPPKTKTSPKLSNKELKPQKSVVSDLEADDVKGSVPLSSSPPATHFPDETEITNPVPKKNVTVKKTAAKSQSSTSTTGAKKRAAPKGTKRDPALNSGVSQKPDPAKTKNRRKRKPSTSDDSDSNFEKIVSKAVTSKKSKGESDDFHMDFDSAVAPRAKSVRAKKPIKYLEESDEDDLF
# [2] = target: DNA topoisomerase 2-alpha (Homo sapiens) (UniProt P11388); experiment: Inhibition of human DNA topoisomerase 2alpha assessed as relaxation of supercoiled pBR322 DNA at 20 uM after 30 mins using ethidium bromide staining by agarose gel electrophoresis
# [3] = target: T1, DNA topoisomerase 1 (Homo sapiens) (UniProt P11387); experiment: Inhibition of human recombinant DNA topoisomerase 1 assessed as relaxation of supercoiled pBR322 DNA at 100 uM after 30 mins using ethidium bromide staining by agarose gel electrophoresis
# T1 sequence (whole entry): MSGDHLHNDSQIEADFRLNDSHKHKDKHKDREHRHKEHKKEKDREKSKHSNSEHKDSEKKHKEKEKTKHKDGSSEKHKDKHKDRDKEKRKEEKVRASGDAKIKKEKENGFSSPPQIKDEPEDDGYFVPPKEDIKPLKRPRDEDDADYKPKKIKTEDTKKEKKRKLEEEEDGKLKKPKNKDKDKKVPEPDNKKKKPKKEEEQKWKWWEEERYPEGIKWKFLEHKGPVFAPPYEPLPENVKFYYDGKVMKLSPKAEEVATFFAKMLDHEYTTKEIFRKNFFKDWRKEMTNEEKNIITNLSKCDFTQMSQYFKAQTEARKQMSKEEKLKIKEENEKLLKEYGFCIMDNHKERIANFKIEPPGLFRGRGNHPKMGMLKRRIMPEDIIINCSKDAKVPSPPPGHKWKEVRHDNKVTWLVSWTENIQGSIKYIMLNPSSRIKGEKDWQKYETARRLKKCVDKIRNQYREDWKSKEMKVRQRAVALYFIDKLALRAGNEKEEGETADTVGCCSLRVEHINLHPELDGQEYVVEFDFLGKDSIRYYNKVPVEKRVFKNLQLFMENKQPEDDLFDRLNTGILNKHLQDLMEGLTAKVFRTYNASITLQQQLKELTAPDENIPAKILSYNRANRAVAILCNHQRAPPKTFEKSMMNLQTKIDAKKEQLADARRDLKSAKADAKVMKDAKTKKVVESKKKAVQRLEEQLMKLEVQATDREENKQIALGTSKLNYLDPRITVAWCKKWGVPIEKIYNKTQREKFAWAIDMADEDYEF
# DU-145 = experiment: Cytotoxicity against human DU145 cells after 2 days by CCK8 assay; type: functional, cell-based; details: DU-145, 48 h
# HCT-15 = experiment: Cytotoxicity against human HCT15 cells after 2 days by CCK8 assay; type: functional, cell-based; details: HCT-15, 48 h
# T47D = experiment: Cytotoxicity against human T47D cells after 2 days by CCK8 assay; type: functional, cell-based; details: 48 h
# [4] = Cytotoxicity against human MCF10A cells after 2 days by CCK8 assay; type: cell-based; details: MCF-10A, 48 h
# [5] = target: T1, DNA topoisomerase 1 (Homo sapiens); experiment: Inhibition of human recombinant DNA topoisomerase 1 assessed as relaxation of supercoiled pBR322 DNA at 20 uM after 30 mins using ethidium bromide staining by agarose gel electrophoresis
Structure (SMILES),inhibition [1],inhibition [2],inhibition [3],IC50 (DU-145),IC50 (HCT-15),IC50 (T47D),IC50 [4],inhibition [5]
Oc1cccc(-c2cc(-c3ccccc3O)nc3c2COc2ccccc2-3)c1,88.6%,33.7%,2.4%,6370 nM,2110 nM,3420 nM,4.61 µM,–
Oc1ccccc1-c1cc(-c2ccco2)nc2c1COc1ccccc1-2,91.5%,17%,3.9%,2450 nM,2010 nM,2980 nM,7.98 µM,–
Oc1ccc(-c2cc(-c3ccc(O)cc3)c3c(n2)-c2ccccc2OC3)cc1,97.2%,10.3%,2.8%,3800 nM,690 nM,780 nM,1.9 µM,–
Oc1ccc(-c2cc(-c3ccccc3)nc3c2COc2ccccc2-3)cc1,94.1%,16.1%,2.1%,1560 nM,15100 nM,1350 nM,6.35 µM,–
COc1cc([C@@H]2c3cc4c(cc3[C@@H](O[C@@H]3O[C@@H]5CO[C@@H](C)O[C@H]5[C@H](O)[C@H]3O)[C@H]3COC(=O)[C@H]23)OCO4)cc(OC)c1O [ETOPOSIDE],–,–,–,13100 nM,2600 nM,940 nM,10.1 µM,–
Oc1ccc(-c2cc(-c3cccc(O)c3)nc3c2COc2ccccc2-3)cc1,93.5%,7.6%,1.8%,810 nM,550 nM,670 nM,2.42 µM,–
Oc1cccc(-c2cc(-c3cccs3)nc3c2COc2ccccc2-3)c1,99%,41.2%,6.6%,860 nM,3170 nM,2240 nM,6.44 µM,–
CC[C@@]1(O)C(=O)OCc2c1cc1n(c2=O)Cc2cc3ccccc3nc2-1 [CAMPTOTHECIN],–,–,–,–,300 nM,80 nM,0.97 µM,–
Oc1cccc(-c2cc(-c3ccccc3)nc3c2COc2ccccc2-3)c1,94.8%,10.9%,1.5%,2330 nM,3030 nM,760 nM,8.52 µM,–
c1ccc(-c2cc(-c3ccccc3)c3c(n2)-c2ccccc2OC3)cc1,–,–,0%,–,–,14200 nM,6.58 µM,–
Oc1ccc(-c2cc(-c3ccsc3)nc3c2COc2ccccc2-3)cc1,100%,18.1%,0%,390 nM,1660 nM,1900 nM,5.83 µM,–
Oc1ccccc1-c1cc(-c2ccsc2)nc2c1COc1ccccc1-2,100%,29.7%,3.3%,740 nM,3170 nM,2740 nM,7.17 µM,–
Oc1cccc(-c2cc(-c3cccc(O)c3)c3c(n2)-c2ccccc2OC3)c1,93.3%,1.9%,4.3%,1580 nM,4110 nM,1770 nM,5.81 µM,–
Oc1ccccc1-c1cc(-c2ccccc2O)c2c(n1)-c1ccccc1OC2,78%,47.9%,2.4%,4690 nM,3580 nM,2760 nM,8.76 µM,–
Oc1ccc(-c2cc(-c3cccs3)nc3c2COc2ccccc2-3)cc1,91.7%,25.8%,1%,830 nM,1520 nM,1210 nM,6.24 µM,–
Oc1cccc(-c2cc(-c3ccccc3O)c3c(n2)-c2ccccc2OC3)c1,92.1%,4.8%,3.3%,630 nM,1010 nM,2170 nM,3.42 µM,–
Oc1ccc(-c2cc(-c3cccc(O)c3)c3c(n2)-c2ccccc2OC3)cc1,93%,1.8%,5.3%,2060 nM,2980 nM,2370 nM,4.64 µM,–
COc1cccc2c1C(=O)c1c(O)c3c(c(O)c1C2=O)C[C@@](O)(C(=O)CO)C[C@@H]3O[C@H]1C[C@H](N)[C@H](O)[C@H](C)O1 [DOXORUBICIN],–,–,–,950 nM,–,1880 nM,1.23 µM,–
Oc1ccc(-c2cc(-c3ccccc3O)nc3c2COc2ccccc2-3)cc1,89.3%,63.2%,3.8%,> 50000 nM,1560 nM,1290 nM,24.2 µM,–
Oc1ccccc1-c1cc(-c2cccs2)nc2c1COc1ccccc1-2,95.7%,4.8%,3.5%,5970 nM,1940 nM,2720 nM,5.64 µM,–
Oc1ccccc1-c1cc(-c2ccccc2)nc2c1COc1ccccc1-2,84.7%,10%,3.6%,5010 nM,3470 nM,3820 nM,8.2 µM,–
Oc1cccc(-c2cc(-c3ccco3)nc3c2COc2ccccc2-3)c1,84.9%,0%,1.4%,3100 nM,4770 nM,3590 nM,8.8 µM,–
Oc1ccc(-c2cc(-c3ccccc3O)c3c(n2)-c2ccccc2OC3)cc1,93.6%,8%,7.6%,1950 nM,1660 nM,2090 nM,2.74 µM,–
Oc1ccc(-c2cc(-c3ccco3)nc3c2COc2ccccc2-3)cc1,95.6%,6.8%,0.5%,4450 nM,1230 nM,850 nM,6.88 µM,–
Oc1cccc(-c2cc(-c3ccsc3)nc3c2COc2ccccc2-3)c1,100%,31.7%,68.6%,3000 nM,1220 nM,1180 nM,7.26 µM,0%
